Assay results as given in patent EP0238178B1, “Novel derivatives of erythromycylamine” (ELI LILLY AND COMPANY, priority 1986, dated 1987).
Converted amounts (≈) assume the structure as drawn.

Assays:
[1] = test system: Staphylococcus aureus X1.1; assay: MIC, standard agar-dilution assay; assay type: cell-based; details: read-out: MIC
[2] = test system: Staphylococcus aureus V41; assay: MIC, standard agar-dilution assay; assay type: cell-based; details: Staphylococcus aureus V41, Penicillin-resistant strain, inducibly-resistant to erythromycin; read-out: MIC
From the text: (§1) In addition to excellent in vitro activity against erythromycin-sensitive bacteria, several members of this new series have shown in vitro activity against erythromycin-resistant strains. These include strains which are inducibly-resistant to erythromycin (S.. aureus V41 and X400 and S. epidermidis EPI1) and even strains which are constitutively-resistant (S. epidermidis 270).

[3] = test system: Staphylococcus aureus X400; assay: MIC, standard agar-dilution assay; assay type: cell-based; details: Staphylococcus aureus X400, Methicillin-resistant strain, inducibly-resistant to erythromycin; read-out: MIC
From the text: as §1

[4] = test system: Staphylococcus epidermidis EPI1; assay: MIC, standard agar-dilution assay; assay type: cell-based
From the text: as §1

[5] = test system: Staphylococcus aureus S13E; assay: MIC, standard agar-dilution assay; assay type: cell-based
[6] = test system: Staphylococcus epidermidis 222; assay: MIC, standard agar-dilution assay; assay type: cell-based; details: read-out: MIC
[7] = test system: Streptococcus pyogenes C203; assay: MIC, standard agar-dilution assay; assay type: cell-based; details: read-out: MIC
[8] = test system: Streptococcus pneumoniae Park I; assay: MIC, standard agar-dilution assay; assay type: cell-based; details: read-out: MIC
[9] = test system: Streptococcus sp. group D X66; assay: MIC, standard agar-dilution assay; assay type: cell-based; details: Streptococcus sp. group D X66; read-out: MIC
[10] = test system: Streptococcus sp. group D 2041; assay: MIC, standard agar-dilution assay; assay type: cell-based; details: read-out: MIC
[11] = test system: Haemophilus influenzae C.L.; assay: MIC, standard agar-dilution assay; assay type: cell-based; details: Ampicillin-sensitive strain, read-out: MIC
[12] = test system: Haemophilus influenzae 76; assay: MIC, standard agar-dilution assay; assay type: cell-based; details: Haemophilus influenzae 76, Ampicillin-resistant strain; read-out: MIC
[13] = test system: Escherichia coli EC14; assay: MIC, standard agar-dilution assay; assay type: cell-based; details: read-out: MIC
[14] = test system: Klebsiella pneumoniae X68; assay: MIC, standard agar-dilution assay; assay type: cell-based; details: read-out: MIC
[15] = test system: Staphylococcus aureus; assay: Experimental bacterial infection in mice, ED50; assay type: in vivo; details: Staphylococcus aureus, po, two doses, dose protecting 50% of animals, read-out: Oral ED50
Description: (§2) The new derivatives of this invention have also shown in vivo antimicrobial activity against experimental bacterial infections. When two doses of test compound were administered to mice in experimental infections, the activity observed was measured as an EDso value [effective dose in mg/kg to protect 50% of the test animals: see Warren Wick, et al., J. Bacteriol. 81, 233-235 (1961)].

[16] = test system: Streptococcus pneumoniae; assay: Experimental bacterial infection in mice, ED50; assay type: in vivo; details: Streptococcus pneumoniae, po, two doses, dose protecting 50% of animals, read-out: Oral ED50
Description: as §2

[17] = test system: Streptococcus pyogenes; assay: Experimental bacterial infection in mice, ED50; assay type: in vivo; details: Streptococcus pyogenes, po, two doses, dose protecting 50% of animals, read-out: Oral ED50
Description: as §2

SMILES | MIC [1] [µg/mL] | MIC [2] [µg/mL] | MIC [3] [µg/mL] | MIC [4] [µg/mL] | MIC [5] [µg/mL] | MIC [6] [µg/mL] | MIC [7] [µg/mL] | MIC [8] [µg/mL] | MIC [9] [µg/mL] | MIC [10] [µg/mL] | MIC [11] [µg/mL] | MIC [12] [µg/mL] | MIC [13] [µg/mL] | MIC [14] [µg/mL] | ED50 [15] [mg/kg] | ED50 [16] [mg/kg] | ED50 [17] [mg/kg]
CC[C@H]1OC(=O)[C@H](C)[C@@H](O[C@H]2C[C@@](C)(OC)[C@@H](O)[C@H](C)O2)[C@H](C)[C@@H](O[C@@H]2O[C@H](C)C[C@H](N(C)C)[C@H]2O)[C@](C)(O)C[C@@H](C)[C@H]2[C@H](C)[C@@H](OCN2Cc2ccccc2)[C@]1(C)O [Compound 62, 9-Deoxo-9-[(benzyl)amino]-9,11-(N.O)-cyclic Methylene Adduct of Erythromycin] | 1 (≈ 1.19 µM) | 64 (≈ 76.5 µM) | 128 (≈ 153 µM) | 64 (≈ 76.5 µM) | 1 (≈ 1.19 µM) | 0.5 (≈ 0.597 µM) | 0.125 (≈ 0.149 µM) | 0.06 (≈ 0.0717 µM) | 0.5 (≈ 0.597 µM) | 4 (≈ 4.78 µM) | 4 (≈ 4.78 µM) | 4 (≈ 4.78 µM) | > 128 | > 128 | > 50 | 15.2 | 15.6
CC[C@H]1OC(=O)[C@H](C)[C@@H](O[C@H]2C[C@@](C)(OC)[C@@H](O)[C@H](C)O2)[C@H](C)[C@@H](O[C@@H]2O[C@H](C)C[C@H](N(C)C)[C@H]2O)[C@](C)(O)C[C@@H](C)[C@H](N(C)C)[C@H](C)[C@@H](O)[C@]1(C)O [Compound 69, 9-Deoxo-9-(dimethylamino)erythromycin] | 4 (≈ 5.24 µM) | 64 (≈ 83.9 µM) | 64 (≈ 83.9 µM) | > 128 | 2 (≈ 2.62 µM) | 2 (≈ 2.62 µM) | 0.25 (≈ 0.328 µM) | – | 0.5 (≈ 0.655 µM) | 4 (≈ 5.24 µM) | 2 (≈ 2.62 µM) | 8 (≈ 10.5 µM) | 128 (≈ 168 µM) | > 128 | > 43.8 | 43.5 | 21.9
CC[C@H]1OC(=O)[C@H](C)[C@@H](O[C@H]2C[C@@](C)(OC)[C@@H](O)[C@H](C)O2)[C@H](C)[C@@H](O[C@@H]2O[C@H](C)C[C@H](N(C)C)[C@H]2O)[C@](C)(O)C[C@@H](C)[C@H](N(C)C(C)C)[C@H](C)[C@@H](O)[C@]1(C)O [Compound 70, 9-Deoxo-9-[(N-methyl-N-isopropyl)amino]erythromycin] | 8 (≈ 10.1 µM) | > 128 | > 128 | > 128 | 8 (≈ 10.1 µM) | 8 (≈ 10.1 µM) | 0.5 (≈ 0.632 µM) | 0.5 (≈ 0.632 µM) | 2 (≈ 2.53 µM) | 32 (≈ 40.5 µM) | 32 (≈ 40.5 µM) | 32 (≈ 40.5 µM) | > 128 | > 128 | – | – | –
CC[C@H]1OC(=O)[C@H](C)[C@@H](O[C@H]2C[C@@](C)(OC)[C@@H](O)[C@H](C)O2)[C@H](C)[C@@H](O[C@@H]2O[C@H](C)C[C@H](N(C)C)[C@H]2O)[C@](C)(O)C[C@@H](C)[C@H](N(C)C2CCCCC2)[C@H](C)[C@@H](O)[C@]1(C)O [Compound 71, 9-Deoxo-9-[(N-cyclohexyl-N-methyl)amino]erythromycin] | 16 (≈ 19.3 µM) | > 128 | > 128 | > 128 | 16 (≈ 19.3 µM) | 8 (≈ 9.63 µM) | 1 (≈ 1.2 µM) | 0.125 (≈ 0.15 µM) | 8 (≈ 9.63 µM) | 128 (≈ 154 µM) | 32 (≈ 38.5 µM) | 32 (≈ 38.5 µM) | > 128 | > 128 | > 50 | > 50 | > 50
CC[C@H]1OC(=O)[C@H](C)[C@@H](O[C@H]2C[C@@](C)(OC)[C@@H](O)[C@H](C)O2)[C@H](C)[C@@H](O[C@@H]2O[C@H](C)C[C@H](N(C)C)[C@H]2O)[C@](C)(O)C[C@@H](C)[C@H](N2CCCCC2)[C@H](C)[C@@H](O)[C@]1(C)O [Compound 72, 9-Deoxo-9-(1-piperidinyl)erythromycin] | 16 (≈ 19.9 µM) | > 128 | > 128 | > 128 | 16 (≈ 19.9 µM) | 8 (≈ 9.96 µM) | 1 (≈ 1.25 µM) | 1 (≈ 1.25 µM) | 4 (≈ 4.98 µM) | 128 (≈ 159 µM) | 2 (≈ 2.49 µM) | 64 (≈ 79.7 µM) | > 128 | > 128 | > 44 | 20.6 | 23.6
